Assay results published in ChEMBL document CHEMBL1201862, “PubChem BioAssay data set” (2004).
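The compound was tested at five concentrations on cells cultured in 96-well plates, with a 48-hour exposure period. Here, GI50 denotes the concentration required for 50% inhibition of growth.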 Calls of active or inactive are those of the source. No stated cut-off is given here; in the data, active = GI50 up to about 1.1 µM and inactive = higher.

Key:
Experiment in all cases: NCI tumour cell line growth inhibition, 48 h
BT-549 = tested on: BT-549
HOP-92 = tested on: HOP-92
K562 = tested on: K562
LOX IMVI = tested on: LOX IMVI
M14 = tested on: M14
MCF7 = tested on: MCF7
MDA-N = tested on: MDA-N
Malme-3M = tested on: Malme-3M
NCI-H460 = tested on: NCI-H460
OVCAR-5 = tested on: OVCAR-5
OVCAR-8 = tested on: OVCAR-8
SK-MEL-5 = tested on: SK-MEL-5
SNB-19 = tested on: SNB-19
SNB-75 = tested on: SNB-75
SR = tested on: SR
SW-620 = tested on: SW-620
UACC-257 = tested on: UACC-257
UACC-62 = tested on: UACC-62
T47D = tested on: T47D

Measured: GI50

Cc1cc(Cl)nc(Nc2nc3ccccc3[nH]2)n1
inactive: BT-549 > 100 µM | HOP-92 21.8 µM | K562 > 100 µM | LOX IMVI > 100 µM | M14 > 100 µM | MCF7 > 100 µM | MDA-N > 100 µM | Malme-3M > 100 µM | NCI-H460 > 100 µM | OVCAR-5 > 100 µM | OVCAR-8 > 100 µM | SK-MEL-5 > 100 µM | SNB-19 > 100 µM | SNB-75 > 100 µM | SR 32.1 µM | SW-620 > 100 µM | UACC-257 > 100 µM | UACC-62 > 100 µM

COC(=O)[C@H](CCSC)NC(=O)N[C@H](C)c1ccccc1
inactive: BT-549 > 100 µM | HOP-92 43.5 µM | K562 > 100 µM | LOX IMVI > 100 µM | M14 > 100 µM | MCF7 > 100 µM | MDA-N > 100 µM | Malme-3M 24.9 µM | NCI-H460 > 100 µM | OVCAR-5 > 100 µM | OVCAR-8 > 100 µM | SK-MEL-5 > 100 µM | SNB-19 > 100 µM | SNB-75 > 100 µM | SR > 100 µM | SW-620 > 100 µM | UACC-257 86.7 µM | UACC-62 > 100 µM

O=C(CSCC(=O)N/N=C\c1ccc(-c2ccccc2)cc1)N/N=C\c1ccc(-c2ccccc2)cc1
inactive: BT-549 20.8 µM | HOP-92 45.6 µM | K562 25.8 µM | LOX IMVI 16.3 µM | M14 23.8 µM | MCF7 36.1 µM | Malme-3M 27.2 µM | NCI-H460 30.9 µM | OVCAR-5 29.6 µM | OVCAR-8 24.6 µM | SK-MEL-5 39.9 µM | SNB-19 26.2 µM | SNB-75 16.3 µM | SR 6.58 µM | SW-620 16.3 µM | T47D 34.9 µM | UACC-257 35.7 µM | UACC-62 22.9 µM

O=C1Nc2ccc(Br)cc2/C1=N/S(=O)(=O)O
inactive: BT-549 34.8 µM | HOP-92 > 100 µM | K562 17.3 µM | LOX IMVI 10 µM | M14 38.5 µM | MCF7 17.8 µM | MDA-N 11.4 µM | Malme-3M 26.1 µM | NCI-H460 29 µM | OVCAR-5 27.6 µM | OVCAR-8 24.4 µM | SK-MEL-5 16.1 µM | SNB-19 > 100 µM | SNB-75 24.5 µM | SW-620 18.2 µM | T47D 29 µM | UACC-257 15.9 µM | UACC-62 18.7 µM

C=C1c2c(n(S(=O)(=O)c3ccccc3)c3ccccc23)[C@@]2(C(=O)OC)CC3C=CC2N1C3
inactive: BT-549 > 100 µM | HOP-92 > 100 µM | K562 > 100 µM | LOX IMVI > 100 µM | M14 > 100 µM | MCF7 > 100 µM | MDA-N > 100 µM | Malme-3M > 100 µM | NCI-H460 > 100 µM | OVCAR-5 > 100 µM | OVCAR-8 > 100 µM | SNB-19 > 100 µM | SNB-75 > 100 µM | SW-620 > 100 µM | T47D > 100 µM | UACC-257 > 100 µM | UACC-62 > 100 µM

CC1=NNC(=O)C1C1CC(c2c[nH]c3ccccc23)=NNC1=O (stereo not given)
inactive: BT-549 > 100 µM | HOP-92 > 100 µM | K562 > 100 µM | M14 > 100 µM | MDA-N > 100 µM | Malme-3M > 100 µM | NCI-H460 > 100 µM | OVCAR-5 > 100 µM | OVCAR-8 > 100 µM | SK-MEL-5 > 100 µM | SNB-19 > 100 µM | SNB-75 28.4 µM | SW-620 > 100 µM | T47D > 100 µM | UACC-257 > 100 µM | UACC-62 > 100 µM

C=CC(Cl)(CBr)CCC(Br)=C(C)C (stereo not given)
inactive: BT-549 21.5 µM | HOP-92 16.9 µM | K562 31.2 µM | LOX IMVI 15.7 µM | M14 25.5 µM | MCF7 14.2 µM | MDA-N 19.4 µM | Malme-3M 17.6 µM | NCI-H460 18.9 µM | OVCAR-5 26.8 µM | OVCAR-8 24.9 µM | SK-MEL-5 17.1 µM | SNB-19 34.5 µM | SNB-75 41.5 µM | SR 21.7 µM | SW-620 15.8 µM | UACC-257 25.8 µM | UACC-62 18.6 µM

CCCC(=O)OC[n+]1ccc(-c2c(COC(=O)NC(C)C)c(COC(=O)NC(C)C)c3n2CCC3)cc1
inactive: BT-549 > 100 µM | HOP-92 > 100 µM | K562 > 100 µM | LOX IMVI > 100 µM | M14 > 100 µM | MCF7 80.7 µM | Malme-3M > 100 µM | NCI-H460 76.4 µM | OVCAR-5 > 100 µM | OVCAR-8 > 100 µM | SK-MEL-5 > 100 µM | SNB-19 > 100 µM | SNB-75 87.3 µM | SR 4.99 µM | SW-620 > 100 µM | T47D > 100 µM | UACC-257 > 100 µM | UACC-62 47 µM

CCOC(=O)N(CC)c1c(C(F)(F)F)cc(-c2ccccc2)[nH]c1=O
inactive: BT-549 75 µM | HOP-92 50.7 µM | K562 23.1 µM | LOX IMVI 68.4 µM | M14 66.4 µM | MCF7 44 µM | MDA-N 23.3 µM | NCI-H460 45.1 µM | OVCAR-5 > 100 µM | OVCAR-8 49.4 µM | SK-MEL-5 41.7 µM | SNB-19 > 100 µM | SW-620 54.7 µM | T47D 32.7 µM | UACC-257 48.3 µM | UACC-62 66.2 µM

O=C1Nc2ccc(Br)cc2/C1=C/C(=O)c1ccccc1
inactive: BT-549 8.59 µM | HOP-92 4.13 µM | K562 5.57 µM | LOX IMVI 1.93 µM | M14 11.1 µM | MCF7 4.18 µM | Malme-3M 6.37 µM | NCI-H460 18.2 µM | OVCAR-5 22.5 µM | OVCAR-8 2.1 µM | SK-MEL-5 16.7 µM | SNB-19 19.4 µM | SNB-75 17.3 µM | SR 4.37 µM | SW-620 2.25 µM | T47D 14.7 µM | UACC-257 15.1 µM | UACC-62 16 µM

O=c1oc2ccccc2c(O)c1C1c2c(c3ccccc3oc2=O)Oc2c1c(=O)oc1ccccc21
inactive: BT-549 27.5 µM | HOP-92 35.2 µM | K562 33.7 µM | LOX IMVI 38.5 µM | MDA-N 18.9 µM | Malme-3M > 100 µM | NCI-H460 17.1 µM | OVCAR-8 32.1 µM | SK-MEL-5 21 µM | SNB-19 48.5 µM | SNB-75 57.1 µM | SW-620 38.2 µM | T47D 38.4 µM | UACC-257 34.8 µM | UACC-62 21.4 µM
